Measurements reported in US20240116845A1, “INDENE COMPOUNDS, PHARMACEUTICAL COMPOSITIONS THEREOF, AND THEIR THERAPEUTIC APPLICATIONS” (NucMito Pharmaceuticals Co., Ltd., priority 2021, published 2024).

Assays:
Format in all cases: cell-based
[1] = tested on: alpha-smooth muscle actin (α-SMA); test: Inhibition of TGF-β induced expression of alpha-smooth muscle actin in CFSC cells (western blot); conditions: compound at 10 μM, TGF-β (10 ng/mL), 24 hours
Procedure, shortened: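 Read-out is percent decrease in α-SMA western-blot band intensity, β-actin also probed, relative to TGF-β-only cells. CFSC cells were co-treated for 24 h at 37 °C with 10 ng/mL TGF-β and 10 μM compound in serum-free DMEM.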

[2] = tested on: A431 (epidermoid carcinoma); test: Antiproliferative activity, CCK-8 cell viability; conditions: Homo sapiens, A-431, 72 h, read-out: Inhibition of Cancerous Cells, A431; for inhibition at 3.3 µM: compound concentration of 3.3 μM; for inhibition at 10 µM: compound concentration of 10 μM; for inhibition at 30 µM: compound concentration of 30 μM
Procedure, shortened: (§1)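 Viability relative to DMSO controls came from CCK-8 absorbance at 450 nm after 72 h exposure at 37°C. Compound concentrations were 3.3, 10 or 30 μM, in DMEM plus 10% FBS. Results are categorised by inhibition level: at least 50%, 30 to under 50%, or under 30%.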

[3] = tested on: A549 (lung adenocarcinoma); test: Antiproliferative activity, CCK-8 cell viability; conditions: Homo sapiens, 72 h, read-out: Inhibition of Cancerous Cells, A549; for inhibition at 3.3 µM: compound concentration of 3.3 μM; for inhibition at 10 µM: compound concentration of 10 μM; for inhibition at 30 µM: compound concentration of 30 μM
[4] = tested on: B16F10 (malignant melanoma); test: Antiproliferative activity, CCK-8 cell viability; conditions: Mus musculus, B16-F10, 72 h, read-out: Inhibition of Cancerous Cells, B16F10; for inhibition at 3.3 µM: compound concentration of 3.3 μM; for inhibition at 10 µM: compound concentration of 10 μM; for inhibition at 30 µM: compound concentration of 30 μM
Procedure, shortened: as §1

[5] = tested on: HeLa (cervical cancer); test: Antiproliferative activity, CCK-8 cell viability; conditions: Homo sapiens, 72 h, read-out: Inhibition of Cancerous Cells, HELA; for inhibition at 3.3 µM: compound concentration of 3.3 μM; for inhibition at 10 µM: compound concentration of 10 μM; for inhibition at 30 µM: compound concentration of 30 μM
[6] = tested on: HepG2 (liver cancer); test: Antiproliferative activity, CCK-8 cell viability; conditions: Homo sapiens, 72 h, read-out: Inhibition of Cancerous Cells, HepG2; for inhibition at 3.3 µM: compound concentration of 3.3 μM; for inhibition at 10 µM: compound concentration of 10 μM; for inhibition at 30 µM: compound concentration of 30 μM
Procedure, shortened: as §1

[7] = tested on: MDA-MB-231 (breast cancer); test: Antiproliferative activity, CCK-8 cell viability; conditions: Homo sapiens, 72 h, read-out: Inhibition of Cancerous Cells, MDA-MB-231; for inhibition at 3.3 µM: compound concentration of 3.3 μM; for inhibition at 10 µM: compound concentration of 10 μM; for inhibition at 30 µM: compound concentration of 30 μM
Procedure, shortened: as §1

[8] = tested on: SW480 (colon cancer); test: Antiproliferative activity, CCK-8 cell viability; conditions: Homo sapiens, 72 h, read-out: Inhibition of Cancerous Cells, SW480; for inhibition at 3.3 µM: compound concentration of 3.3 μM; for inhibition at 10 µM: compound concentration of 10 μM; for inhibition at 30 µM: compound concentration of 30 μM
Procedure, shortened: as §1

Compound | inhibition at 10 µM [1] [%] | inhibition at 3.3 µM [2] [%] | inhibition at 10 µM [2] [%] | inhibition at 30 µM [2] [%] | inhibition at 3.3 µM [3] [%] | inhibition at 10 µM [3] [%] | inhibition at 30 µM [3] [%] | inhibition at 3.3 µM [4] [%] | inhibition at 10 µM [4] [%] | inhibition at 30 µM [4] [%] | inhibition at 3.3 µM [5] [%] | inhibition at 10 µM [5] [%] | inhibition at 30 µM [5] [%] | inhibition at 3.3 µM [6] [%] | inhibition at 10 µM [6] [%] | inhibition at 30 µM [6] [%] | inhibition at 3.3 µM [7] [%] | inhibition at 10 µM [7] [%] | inhibition at 30 µM [7] [%] | inhibition at 3.3 µM [8] [%] | other results
CC1=C(CC(=O)O)c2cc(F)ccc2/C1=C\c1ccc(Oc2ccc(F)c(F)c2)cc1 [Compound D5, 2-[(1Z)-5-Fluoro-2-methyl-1-({4-[3,4-difluorophenoxy]phenyl}methylidene)-1H-inden-3-yl]acetic acid] | ≥ 80 | < 30 | ≥ 50 | ≥ 50 | 30 to 50 | ≥ 50 | ≥ 50 | ≥ 50 | ≥ 50 | ≥ 50 | 30 to 50 | ≥ 50 | ≥ 50 | ≥ 50 | ≥ 50 | ≥ 50 | ≥ 50 | ≥ 50 | ≥ 50 | ≥ 50 | inhibition at 10 µM [8]: ≥ 50%; inhibition at 30 µM [8]: ≥ 50%
O=C(O)CC1=C(Cc2ccccc2)/C(=C/c2ccc(Oc3ccc(F)cc3)cc2)c2ccc(F)cc21 [Compound D9, 2-[(1Z)-5-Fluoro-2-benzyl-1-({4-[4-fluorophenoxy]phenyl}methylidene)-1H-inden-3-yl]acetic acid] | ≥ 80 | 30 to 50 | ≥ 50 | ≥ 50 | 30 to 50 | ≥ 50 | ≥ 50 | < 30 | ≥ 50 | ≥ 50 | 30 to 50 | 30 to 50 | ≥ 50 | < 30 | < 30 | ≥ 50 | ≥ 50 | ≥ 50 | ≥ 50 | 30 to 50 | inhibition at 10 µM [8]: ≥ 50%; inhibition at 30 µM [8]: ≥ 50%
CC1=C(CC(=O)O)c2cc(F)ccc2/C1=C\c1ccc(Oc2ccc(F)cc2)cc1C(F)(F)F [Compound D12, 2-[(1Z)-1-{[2-Trifluoromethyl-4-(4-fluorophenoxy)phenyl]methylidene}-5-fluoro-2-methyl-1H-inden-3-yl]acetic acid] | < 30 | 30 to 50 | ≥ 50 | ≥ 50 | 30 to 50 | ≥ 50 | ≥ 50 | < 30 | ≥ 50 | ≥ 50 | < 30 | < 30 | < 30 | ≥ 50 | ≥ 50 | ≥ 50 | ≥ 50 | ≥ 50 | ≥ 50 | 30 to 50 | inhibition at 10 µM [8]: ≥ 50%; inhibition at 30 µM [8]: ≥ 50%
CC1=C(CC(=O)O)c2cc(F)ccc2/C1=C\c1ccc(Oc2ccc(F)cc2)c(C)c1 [Compound D13, 2-[(1Z)-1-{[3-Methyl-4-(4-fluorophenoxy)phenyl]methylidene}-5-fluoro-2-methyl-1H-inden-3-yl]acetic acid] | < 30 | 30 to 50 | ≥ 50 | ≥ 50 | 30 to 50 | ≥ 50 | ≥ 50 | ≥ 50 | ≥ 50 | ≥ 50 | < 30 | 30 to 50 | ≥ 50 | 30 to 50 | 30 to 50 | ≥ 50 | < 30 | ≥ 50 | ≥ 50 | 30 to 50 | inhibition at 10 µM [8]: ≥ 50%; inhibition at 30 µM [8]: ≥ 50%
CC1=C(CC(=O)O)c2cc(F)ccc2/C1=C\c1ccc(Oc2ccc(F)cc2)cc1C [Compound D14, 2-[(1Z)-1-{[2-Methyl-4-(4-fluorophenoxy)phenyl]methylidene}-5-fluoro-2-methyl-1H-inden-3-yl]acetic acid] | ≥ 80 | 30 to 50 | ≥ 50 | ≥ 50 | 30 to 50 | ≥ 50 | ≥ 50 | ≥ 50 | ≥ 50 | ≥ 50 | < 30 | 30 to 50 | ≥ 50 | 30 to 50 | 30 to 50 | ≥ 50 | 30 to 50 | ≥ 50 | ≥ 50 | 30 to 50 | inhibition at 10 µM [8]: ≥ 50%; inhibition at 30 µM [8]: ≥ 50%
CC1=C(CC(=O)O)c2cc(F)cc(F)c2/C1=C\c1ccc(Oc2ccc(F)cc2)cc1 [Compound D15, 2-[(1Z)-5,7-Difluoro-2-methyl-1-({4-[4-fluorophenoxy]phenyl}methylidene)-1H-inden-3-yl]acetic acid] | ≥ 80 | < 30 | 30 to 50 | ≥ 50 | 30 to 50 | ≥ 50 | ≥ 50 | < 30 | 30 to 50 | ≥ 50 | < 30 | ≥ 50 | ≥ 50 | ≥ 50 | ≥ 50 | ≥ 50 | ≥ 50 | ≥ 50 | ≥ 50 | < 30 | inhibition at 10 µM [8]: ≥ 50%; inhibition at 30 µM [8]: ≥ 50%
CC1=C(CC(=O)O)c2c(F)cc(F)cc2/C1=C\c1ccc(Oc2ccc(F)cc2)cc1 [Compound D16, 2-[(1Z)-4,6-Difluoro-2-methyl-1-({4-[4-fluorophenoxy]phenyl}methylidene)-1H-inden-3-yl]acetic acid] | ≥ 80 | < 30 | 30 to 50 | ≥ 50 | < 30 | 30 to 50 | 30 to 50 | < 30 | 30 to 50 | ≥ 50 | < 30 | 30 to 50 | ≥ 50 | 30 to 50 | 30 to 50 | ≥ 50 | ≥ 50 | ≥ 50 | ≥ 50 | < 30 | inhibition at 10 µM [8]: 30 to 50%; inhibition at 30 µM [8]: ≥ 50%
CC1=C(CC(=O)O)c2cc(F)ccc2/C1=C\c1ccccc1Oc1ccccc1 [Compound D19, 2-[(1Z)-5-Fluoro-1-(2-(phenoxy)benzylidene)-2-methyl-1H-inden-3-yl]-acetic acid] | < 30 | ≥ 50 | ≥ 50 | ≥ 50 | 30 to 50 | ≥ 50 | ≥ 50 | < 30 | 30 to 50 | ≥ 50 | 30 to 50 | ≥ 50 | ≥ 50 | ≥ 50 | ≥ 50 | ≥ 50 | < 30 | < 30 | ≥ 50 | ≥ 50 | inhibition at 10 µM [8]: ≥ 50%; inhibition at 30 µM [8]: ≥ 50%
